# Data taken from patent publication US11672795B2, “Compositions and methods for treating pulmonary vascular disease” (UNIVERSITY OF PITTSBURGH-OF THE COMMONWEALTH SYSTEM OF …, priority 2016, dated 2023).
# Where two headings read alike, the source gives them in different places.
# Tests used:
# Assay type in all cases: in vivo, rat
# [1] = system: monocrotaline-exposed rats; assay: Atomic force microscopy of pulmonary arteriolar stiffness in monocrotaline-exposed rats
# Method: Rat lungs were inflated with 0.025 g of OCT by g of body weight, frozen on liquid nitrogen vapor and store at −80° C. Rat lung slices (10 μm thickness) were cut out from their glass slide and the fragment of glass containing the sample was glued on the bottom of a 50 mm dish (Willco Glass Bottom Dish). Before measurements the sample was first rinsed and after covered with 4 ml of PBS 1×. The mechanical properties of the samples were studied using a BioScope Catalyst atomic force microscope (Bruker) coupled with and optical microscope (Leica DMI6000B) that enables, by phase contrast, to pinpoint the areas of interest. For each sample, from five to a maximum of 9 vessels (<100 μm diameter) were analyzed using the “Point and Shoot” method, collecting from 35 to 80 force-distance curves at just as many discrete points. The experiments of microindentation were performed in PBS using a probe with a Borosilicate Glass spherical tip (5 μm of diameter) and a cantilever with a nominal spring constant of 0.06 N/m (Novascan). Indentations were carried out using a velocity of 2 μm/s, in relative trigger mode and by setting the trigger threshold to 2 nN. The apparent Young's modulus was calculated using the NanoScope Analysis 1.50 software (Bruker), fitting the force curves to the Hertz spherical indentation model and using a Poisson's ratio of 0.4. To avoid large indentation, a minimum and a maximum Force Fit Boundary of 5% and 25% respectively of the whole force curve was taken into account for the fit.
# GLS1 = conditions: monocrotaline-exposed rats; for GLS activity: daily BAPN or daily i.p. verteporfin 25 mg/kg; for GLS1 activity in whole rat lung: daily i.p. 10 mg/kg, C968 from day 2 (prevention), CB839 from day 7 (reversal), vs vehicle
# Method: According to the manufacturer instructions (Glutaminase Microplate Assay Kit, Cohesion Biosciences), flash frozen rat lung tissue (0.1 g/sample) was homogenized in 1 mL of assay buffer on ice and centrifuged at 8000 g 4° C. for 10 min. Protein concentration was determined by Bradford assay. Samples, normalized to total protein (100 μg), were incubated with kit reagents for 1 hr at 37° C., and absorbances were measured at 420 nm.
# (§1) To induce PH, male Sprague-Dawley rats (10-14 week old) were injected intraperitoneally with 60 mg/kg monocrotaline (Sigma-Aldrich). After two days, rats underwent intraperitoneal injection daily with 25 mg/kg of verteporfin (Active Biochemicals Company, Ltd) solubilized in 5% dimethyl sulfoxide (DMSO, Sigma-Aldrich). Two days after the last injection on day 21 post-monocrotaline injection, right heart catheterization was performed followed by harvest of lung tissue and CD31+ cells for RNA or protein extraction, paraffin embedding, or cryopreservation with OCT (Sigma-Aldrich), as we described (2).
# (§2) To induce PH, male Sprague-Dawley rats (10-14 week old) were injected intraperitoneally with 60 mg/kg monocrotaline (Sigma-Aldrich). After two days, serial intraperitoneal injections were given daily of C968 (10 mg/kg, Sigma-Aldrich), and after seven days post-monocrotaline injection, serial intraperitoneal injections were given daily of CB839 (10 mg/kg, Selleck Chemicals). Two days after the last injection on day 21 post-monocrotaline injection, right heart catheterization was performed followed by harvest of lung tissue and CD31+ cells for RNA or protein extraction, paraffin embedding, or cryopreservation with OCT (Sigma-Aldrich), as we described (2).
# [2] = system: monocrotaline-exposed rats; assay: Right heart catheterization and right ventricular weight (RVSP, Fulton index) in monocrotaline-exposed rats; conditions: for hemodynamic and histologic indices of PH: BAPN or verteporfin alone; for PAH severity as quantified by RVSP: daily BAPN or daily i.p. verteporfin 25 mg/kg; for right ventricular remodeling (Fulton index, RV/LV+S) / right ventricular systolic pressure (RVSP): daily i.p. 10 mg/kg, C968 from day 2, CB839 from day 7
# Method: Monocrotaline-treated rats: As we previously described (7, 8), male Sprague-Dawley rats (10-14 week old) were injected with 60 mg/kg monocrotaline at time 0; at 0-4 weeks post-exposure, right heart catheterization was performed followed by harvest of lung tissue for RNA extraction or paraffin embedding, as described below (section: Tissue harvest).
# After physiological measurements by direct right ventricular puncture, the pulmonary vessels were gently flushed with 1 cc of saline to remove the majority of blood cells, prior to harvesting cardiopulmonary tissue. The heart was removed, followed by dissection and weighing of the right ventricle (RV) and of the left ventricle+septum (LV+S). Organs were then harvested for histological preparation or flash frozen in liquid N2 for subsequent homogenization and extraction of RNA and/or protein. To further process lung tissue specifically, prior to excision, lungs were flushed with PBS at constant low pressure (approximately 10 mmHg) via right ventricular cannulation, followed by tracheal inflation of the left lung with 10% neutral-buffered formalin (Sigma-Aldrich) at a pressure of approximately 20 cm H2O. After excision and 16 hours of fixation in 10% neutral-buffered formalin at 25° C., lung tissues were paraffin embedded via an ethanol-xylene dehydration series, before being sliced into 5 μm sections (Hypercenter XP System and Embedding Center, Shandon).
# as §1, §2
# as §2, with “Finally, to investigate whether glutaminolysis itself is essential for promoting pulmonary vascular proliferation in PH, two separate pharmacologic inhibitors of GLS1 (C968 and CB-839) were administered in monocrotaline-exposed rats using either a disease prevention (FIG. 5A) or disease reversal (FIG. 5B) dosing protocol. To” for “To”, “C968 or CB-839” for “C968”, “C968 or CB-839” for “CB839”, “as” for “as we”, “previously (Bertero T, et al. Cell Reports. 2015; 13(5):1016-32).” for “(2).”
# [3] = daily BAPN or daily i.p. verteporfin 25 mg/kg
SMILES,"pulmonary arteriolar (<100 μm diameter) stiffness, atomic force microscopy [1, 3]",GLS activity (GLS1),hemodynamic and histologic indices of PH [2],PAH severity as quantified by RVSP [2],GLS1 activity in whole rat lung (GLS1),"right ventricular remodeling (Fulton index, RV/LV+S) [2]",right ventricular systolic pressure (RVSP) [2],"PAH severity, as quantified by vascular remodeling, arteriolar muscularization, RVSP and right ventricular hypertrophy ([2]; prevention experiment (C968) or reversal study)","pulmonary arteriolar (<100 μm diameter) stiffness, atomic force microscopy ([1]; daily CB839 vs vehicle)",GLS activity (GLS1; listed as verteporfin),PAH severity as quantified by RVSP ([2]; listed as verteporfin),right ventricular remodelling (Fulton index) ([2]; daily i.p. verteporfin 25 mg/kg)
"N#CCCN [BAPN, β-aminoproprionitrile]",decreased,decreased,improvement,in a lower extent BAPN ameliorated,,,,,,,,
"CN(C)c1ccc(C2Nc3ccc4ccccc4c3C3=C2C(=O)CC(C)(C)C3)cc1Br (stereo not shown) [C968, 5-(3-Bromo-4-(dimethylamino)phenyl)-2,2-dimethyl-2,3,5,6-tetrahydrobenzo[a]phenanthridin-4(1H)-one]",,,,,decreased,significantly decreased,significantly decreased,ameliorated,,,,
O=C(Cc1cccc(OC(F)(F)F)c1)Nc1ccc(CCCCc2nnc(NC(=O)Cc3ccccn3)s2)nn1 [CB839],,,,,decreased,significantly decreased,significantly decreased,,decreased,,,
"C=Cc1c(C)c2cc3nc(cc4[nH]c(cc5nc(cc1[nH]2)C(C)=C5CCC(=O)O)c(CCC(=O)OC)c4C)[C@@]1(C)C3=CC=C(C(=O)OC)[C@H]1C(=O)OC [Verteporfin, 3-[(23S,24R)-14-ethenyl-5-(3-methoxy-3-oxopropyl)-22,23-bis(methoxycarbonyl)-4,10,15,24-tetramethyl-25,26,27,28-tetraazahexacyclo[16.6.1.1^3,6.1^8,11.1^13,16.0^19,24]octacosa-1,3,5,7,9,11(27),12,14,16,18(25),19,21-dodecaen-9-yl]propanoic acid]",decreased,decrease,robust improvement,ameliorated,,,,,,improved,reductions,reductions
